# According to PubChem BioAssay AID1963438 (Molecular Pharmacology Branch, DTP, NCI, 2024):
# System: NCI-H510 multicellular tumor spheroid growth, % test/control
# Assay: Anticancer human tumor NCI-H510 cell line growth inhibition [Asc];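 note: spheroids exposed to agents for 7 days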;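 for viability, T/C: 100% = DMSO vehicle control wells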
# Conditions: for IC50: curve of first compound; for viability, T/C: stronger effect = lower value
# How it was run: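 Spheroid model: tumor line + HUVEC + hMSC. Single agents and combinations; top conc. at/near clinical Cmax (10 microM if undetermined), half-log dilutions. DMSO stocks at 800-fold test concentration.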
# [1] = second compound 0.01 µM, first compound 0.0316 µM
# [2] = second compound 0.01 µM, first compound 0.1 µM
# [3] = second compound 0.01 µM, first compound 0.316 µM
# [4] = second compound 0.01 µM, first compound 1 µM
# [5] = second compound 0.0316 µM, first compound 0.0316 µM
# [6] = second compound 0.0316 µM, first compound 0.1 µM
# [7] = second compound 0.0316 µM, first compound 0.316 µM
# [8] = second compound 0.0316 µM, first compound 1 µM
# [9] = second compound 0.1 µM, first compound 0.0316 µM
# [10] = second compound 0.1 µM, first compound 0.1 µM
# [11] = second compound 0.1 µM, first compound 0.316 µM
# [12] = second compound 0.1 µM, first compound 1 µM
# [13] = second compound 0.316 µM, first compound 0.0316 µM
# [14] = second compound 0.316 µM, first compound 0.1 µM
# [15] = second compound 0.316 µM, first compound 0.316 µM
# [16] = second compound 0.316 µM, first compound 1 µM
# [17] = second compound 1 µM, first compound 0.0316 µM
# [18] = second compound 1 µM, first compound 0.1 µM
# [19] = second compound 1 µM, first compound 0.316 µM
# [20] = second compound 1 µM, first compound 1 µM
# [21] = second compound 0.01 µM, first compound 0.00316 µM
# [22] = second compound 0.01 µM, first compound 0.01 µM
# [23] = second compound 0.0316 µM, first compound 0.00316 µM
# [24] = second compound 0.0316 µM, first compound 0.01 µM
# [25] = second compound 0.1 µM, first compound 0.00316 µM
# [26] = second compound 0.1 µM, first compound 0.01 µM
# [27] = second compound 0.316 µM, first compound 0.00316 µM
# [28] = second compound 0.316 µM, first compound 0.01 µM
# [29] = second compound 1 µM, first compound 0.00316 µM
# [30] = second compound 1 µM, first compound 0.01 µM
SMILES,IC50 (second compound 0.01 µM) [nM],IC50 (second compound 0.0316 µM) [nM],IC50 (second compound 0.1 µM) [nM],IC50 (second compound 0.316 µM) [nM],IC50 (second compound 1 µM) [nM],"viability, T/C [1] [%]","viability, T/C [2] [%]","viability, T/C [3] [%]","viability, T/C [4] [%]","viability, T/C [5] [%]","viability, T/C [6] [%]","viability, T/C [7] [%]","viability, T/C [8] [%]","viability, T/C [9] [%]","viability, T/C [10] [%]","viability, T/C [11] [%]","viability, T/C [13] [%]","viability, T/C [14] [%]","viability, T/C [17] [%]","viability, T/C [18] [%]",other results
C=CC(=O)N1CCN(c2nc(=O)n(-c3c(C)ccnc3C(C)C)c3nc(-c4c(O)cccc4F)c(F)cc23)C(C)C1 (stereo not given) + CNC(C)C(=O)NC1CN(S(=O)(=O)c2cccc(S(=O)(=O)N3CCC4CCC(C(=O)NC(c5ccccc5)c5ccccc5)N4C(=O)C(NC(=O)C(C)NC)C3)c2)CCC2CCC(C(=O)NC(c3ccccc3)c3ccccc3)N2C1=O,> 10000,> 10000,> 10000,> 10000,> 10000,115,101,102,115,105,108,95.6,119,112,95.8,102,110,113,96.5,105,"viability, T/C (second compound 0.01 µM, first compound 3.16 µM): 113%; viability, T/C (second compound 0.01 µM, first compound 10 µM): 115%; viability, T/C (second compound 0.0316 µM, first compound 3.16 µM): 104%; viability, T/C (second compound 0.0316 µM, first compound 10 µM): 110%; viability, T/C [12]: 91.9%; viability, T/C (second compound 0.1 µM, first compound 3.16 µM): 105%; viability, T/C (second compound 0.1 µM, first compound 10 µM): 106%; viability, T/C [15]: 102%; viability, T/C [16]: 95.8%; viability, T/C (second compound 0.316 µM, first compound 3.16 µM): 104%; viability, T/C (second compound 0.316 µM, first compound 10 µM): 93.3%; viability, T/C [19]: 107%; viability, T/C [20]: 101%; viability, T/C (second compound 1 µM, first compound 3.16 µM): 98.2%; viability, T/C (second compound 1 µM, first compound 10 µM): 110%"
COc1c(OCCCN2CCOCC2)ccc2c3n(c(=NC(=O)c4cnc(N)nc4)nc12)CCN3 + CNC(C)C(=O)NC1CN(S(=O)(=O)c2cccc(S(=O)(=O)N3CCC4CCC(C(=O)NC(c5ccccc5)c5ccccc5)N4C(=O)C(NC(=O)C(C)NC)C3)c2)CCC2CCC(C(=O)NC(c3ccccc3)c3ccccc3)N2C1=O,> 1000,> 1000,> 1000,> 1000,> 1000,118,130,127,128,125,117,120,113,106,128,112,108,105,112,139,"viability, T/C [21]: 119%; viability, T/C [22]: 104%; viability, T/C [23]: 106%; viability, T/C [24]: 114%; viability, T/C [25]: 92.2%; viability, T/C [26]: 109%; viability, T/C [12]: 125%; viability, T/C [27]: 115%; viability, T/C [28]: 104%; viability, T/C [15]: 121%; viability, T/C [16]: 109%; viability, T/C [29]: 107%; viability, T/C [30]: 113%; viability, T/C [19]: 116%; viability, T/C [20]: 110%"
NC1CCC(NC2CC2c2ccccc2)CC1 (stereo not given) + CNC(C)C(=O)NC1CN(S(=O)(=O)c2cccc(S(=O)(=O)N3CCC4CCC(C(=O)NC(c5ccccc5)c5ccccc5)N4C(=O)C(NC(=O)C(C)NC)C3)c2)CCC2CCC(C(=O)NC(c3ccccc3)c3ccccc3)N2C1=O,> 100,> 100,> 100,> 100,> 100,105,94.3,,,96.9,94.9,,,96.9,97.7,,102,97.8,94.3,101,"viability, T/C (second compound 0.01 µM, first compound 0.000316 µM): 85.6%; viability, T/C (second compound 0.01 µM, first compound 0.001 µM): 105%; viability, T/C [21]: 97.4%; viability, T/C [22]: 90%; viability, T/C (second compound 0.0316 µM, first compound 0.000316 µM): 98.7%; viability, T/C (second compound 0.0316 µM, first compound 0.001 µM): 96.7%; viability, T/C [23]: 92.3%; viability, T/C [24]: 91.6%; viability, T/C (second compound 0.1 µM, first compound 0.000316 µM): 107%; viability, T/C (second compound 0.1 µM, first compound 0.001 µM): 97.4%; viability, T/C [25]: 91.2%; viability, T/C [26]: 89.8%; viability, T/C (second compound 0.316 µM, first compound 0.000316 µM): 99%; viability, T/C (second compound 0.316 µM, first compound 0.001 µM): 106%; viability, T/C [27]: 91%; viability, T/C [28]: 99.9%; viability, T/C (second compound 1 µM, first compound 0.000316 µM): 114%; viability, T/C (second compound 1 µM, first compound 0.001 µM): 106%; viability, T/C [29]: 97.9%; viability, T/C [30]: 98.1%"
